Laboratory results taken from patent publication US4863900A (priority 1987, dated 1989).

How the values were obtained:
HSV1 [1] = experiment: Injection of poly-L-histidine treated HSV1 into mice, observed 14 days; assay type: in vivo, Balb/C mice; conditions: HSV1 incubated with 100 μg His-75 in 1 ml, pH 6.0, one hour at 37° C., 50 μl in lower left jaw
Excerpt: 3. All animals were observed daily for 14 days.

HSV1 [2] = experiment: Virus inactivation, surviving virus by plaque assay on VERO cells; conditions: for inactivation of HSV1, temperature effect: 1 hour
HSV2 = experiment: as above; conditions: for Percent Survivors HSV-2: 1 hr at 37° C.
[3] = system: influenza, Newcastle disease, tobacco mosaic, poliomyelitis, and mumps viruses; conditions: cited from earlier work
[4] = 100 μg/ml at 37° C., pH 6.0, samples at 1, 15, 30, 45 and 60 minutes
[5] = pH 5, 100 μg/ml, 1 hour at 37° C.
[6] = pH 6, 100 μg/ml, 1 hour at 37° C.
[7] = pH 7, 100 μg/ml, 1 hour at 37° C.
[8] = pH 8, 100 μg/ml, 1 hour at 37° C.

poly-L-Histidine [His-75]
health of mice injected with poly-L-histidine treated HSV1 (HSV1 [1]; listed as Poly-L-histidine): failed to cause disease
health of mice injected with poly-L-histidine treated HSV1 (HSV1 [1]; listed as poly-L-histidine): remained healthy throughout the study
Percent Survivors HSV-1 (HSV1 [2]; 1 μg/ml, pH 6.0, 1 hr at 37° C.): 83%
Percent Survivors HSV-1 (HSV1 [2]; 10 μg/ml, pH 6.0, 1 hr at 37° C.): 64%
length of time required for inactivation of HSV1 (HSV1 [2]; [4]): inactivated by as little as one minute of exposure
Percent Survivors HSV-1 (HSV1 [2]; 100 μg/ml, pH 6.0, 30 minutes, 37° C., not shifted): 0%
Percent Survivors HSV-1 (HSV1 [2]; 100 μg/ml, pH 6.0, 60 minutes, 37° C., not shifted): 0%
inactivation of HSV1, temperature effect (HSV1 [2]; 4° C., 100 μg/ml, pH 6.0): a small amount of HSV1 survived
inactivation of HSV1, temperature effect (HSV1 [2]; 22° C. and 37° C., 100 μg/ml, pH 6.0): inactivation was almost complete
ID50 (amount of drug required to inactivate 50% of the virus) (HSV1 [2]; HSV1, pH 6.0, 1 hour at 37° C., linear regression analysis): 44.38 µg/mL
inactivation of HSV1 (HSV1 [2]; [5]): efficiently inactivated
inactivation of HSV1 (HSV1 [2]; [6]): efficiently inactivated
inactivation of HSV1 (HSV1 [2]; [7]): not
inactivation of HSV (HSV1 [2]; pH 7.2): does not inactivate
inactivation of HSV1 (HSV1 [2]; [8]): not
Percent Survivors HSV-2 (HSV2; 1 μg/ml, pH 6.0): 62%
Percent Survivors HSV-2 (HSV2; 10 μg/ml, pH 6.0): 84%
length of time required for inactivation of HSV2 (HSV2; [4]): inactivated by as little as one minute of exposure
inactivation of HSV2, temperature effect (HSV2; 4° C., 22° C. and 37° C., 100 μg/ml, pH 6.0, 1 hour): inactivation was almost complete
ID50 (amount of drug required to inactivate 50% of the virus) (HSV2; HSV2, pH 6.0, 1 hour at 37° C., linear regression analysis): 41.15 µg/mL
inactivation of HSV2 (HSV2; [5]): inactivated
inactivation of HSV2 (HSV2; [6]): inactivated
inactivation of HSV2 (HSV2; [7]): not
inactivation of HSV2 (HSV2; [8]): not and Some small amount of inactivation

poly-L-arginine
inhibitory activity against viruses [3]: inhibitory activity

poly-L-lysine
inhibitory activity against viruses [3]: inhibitory activity

poly-L-Histidine [His-64]
inactivation of HSV1 (HSV1 [2]; [5]): inactivated
inactivation of HSV1 (HSV1 [2]; [6]): inactivated
inactivation of HSV1 (HSV1 [2]; [7]): Some minor inactivation
inactivation of HSV1 (HSV1 [2]; [8]): none
